# Results published in PMC10253456, “Investigating the Contribution of Major Drug-Metabolising Enzymes to Possum-Specific Fertility Control” (International Journal of Molecular Sciences, 2023).
# Structures can show the parent of a compound that is named as a salt.
# Experiments:
# [1] = test system: CYP3A; test: CYP3A catalytic activity (erythromycin N-demethylation) in possum liver microsomes; conditions: for Percent control catalytic activity at estimated IC50 / Percent control catalytic activity at estimated 2-fold IC50: possum liver microsomes, initial screen n=1; for Percent control catalytic activity at estimated IC50: compounds without reported IC50 at 1 µM; for Percent control catalytic activity at estimated 2-fold IC50: compounds without reported IC50 at 5 µM; for % of control (catalytic activity at 2-fold IC50) / Catalytic activity at 2-fold IC50: compound at estimated 2-fold IC50 (5 µM where none reported)
# Procedure: (§1) Possums were collected from the Otago Peninsula (Dunedin) and the Okuti Valley, Banks Peninsula (Christchurch) in New Zealand in collaboration with the Otago Peninsula Biodiversity Group and Manaaki Whenua-Landcare Research, respectively. […] Possums were caged and humanely killed by a blow to the head, and the livers were harvested, snap-frozen in liquid nitrogen, and stored in a freezer at −80 °C until the preparation of microsomal fractions. […] Mice were euthanised by carbon dioxide inhalation and the livers were removed and microsomes prepared. […] The livers from avian species (mallards and a swan) were kindly donated by a local bird hunting group based in Dunedin, New Zealand. The livers from avian species were treated similarly to those mentioned above for the possum samples.
# (§2) Microsomal preparation was carried out as previously described [76]. […] All procedures were performed at 0–4 °C. The liver samples were minced and homogenised in Buffer A (0.1 M Tris, 0.1 M potassium chloride, 1 mM EDTA, and 20 μM butylated hydroxytoluene, at pH = 7.4) using the Teflon-glass homogeniser (5–6 vertical passes). The samples were centrifuged at 10,000× g for 20 min. The supernatant was then transferred into another set of centrifuge tubes and spun at 100,000× g for 60 min. The pellet was resuspended in Buffer B (0.1 M potassium pyrophosphate, 1 mM EDTA, and 20 μM butylated hydroxytoluene, at pH = 7.4), homogenised, and recentrifuged at 100,000× g for 60 min. Finally, the pellet was homogenised in 1–2 mL of Buffer C (10 mM Tris-HCl, 1 mM EDTA, and 4% glycerol (v/v)), and stored at −80 °C until use. The protein concentration of the microsomes was determined using the bicinchoninic acid (BCA) method [77].
# (§3) CYP3A catalytic activity was determined using the erythromycin N-demethylation activity assay, as described [78]. The reaction mixture (final volume of 1 mL and final protein concentration of 1 mg) contained 500 µL of microsomes in 0.1 M phosphate buffer (pH 7.4) and 400 µL of erythromycin buffer (0.45 mM), and 50 µL of the test compound was pre-warmed at 37 °C for 2 min. The reaction was initiated with 50 µL of 2.5 mM nicotinamide adenine dinucleotide phosphate (NADP^+) and incubated for 30 min at 37 °C. […] The tubes were vortexed and left for 5 min (at room temperature), and then 330 µL of saturated barium hydroxide was added. The tubes were further vortexed and left for 5 min (at room temperature). The tubes were then centrifuged at 1800× g for 10 min. To 830 µL of the supernatant, 330 µL of Nash reagent (30% (w/v) ammonium acetate, 0.4% (v/v) acetylacetone) was added and further incubated for 30 min at 60 °C. The blank tube contained 330 µL of Nash reagent and 830 µL of Milli-Q water. […] The CYP3A activities were determined in nmol/mg/min using standard curve data. Results presented are the mean ± SEM of 3 independent experiments performed in duplicate unless otherwise stated.
# [2] = test system: CYP3A; test: CYP3A catalytic activity (erythromycin N-demethylation) in mouse liver microsomes; conditions: for Percent control catalytic activity at estimated IC50 / Percent control catalytic activity at estimated 2-fold IC50: mouse liver microsomes, initial screen n=1; for Percent control catalytic activity at estimated IC50: compounds without reported IC50 at 1 µM; for Percent control catalytic activity at estimated 2-fold IC50: compounds without reported IC50 at 5 µM; for % of control (catalytic activity at 2-fold IC50) / Catalytic activity at 2-fold IC50: compound at estimated 2-fold IC50 (5 µM where none reported)
# Procedure: as §1, §2, §3
Compound,Percent control catalytic activity at estimated IC50 [1],Percent control catalytic activity at estimated 2-fold IC50 [1],Percent control catalytic activity at estimated IC50 [2],Percent control catalytic activity at estimated 2-fold IC50 [2],% of control (catalytic activity at 2-fold IC50) ([1]; possum),Catalytic activity at 2-fold IC50 ([1]; possum),% of control (catalytic activity at 2-fold IC50) ([2]; mouse),Catalytic activity at 2-fold IC50 ([2]; mouse),"% of control (catalytic activity at IC50) ([1]; possum, compound at estimated IC50 (1 µM where none reported))","% of control (catalytic activity at IC50) ([2]; mouse, compound at estimated IC50 (1 µM where none reported))"
"O=C1c2ccc(O)cc2C(=O)c2ccc(O)cc21 [2,6-Dihydroxyanthraquinone]",97 percent control,102 percent control,106 percent control,128 percent control,–,–,–,–,–,–
CC(=O)O[C@H]1CC[C@@]2(C)C(=CC[C@@H]3[C@@H]2CC[C@]2(C)C(c4cccnc4)=CC[C@@H]32)C1 [Abiraterone Acetate],128 percent control,110 percent control,85 percent control,89 percent control,–,–,–,–,–,–
O=c1cc(-c2ccc(O)cc2)oc2cc(O)cc(O)c12 [Apigenin],94 percent control,121 percent control,116 percent control,106 percent control,–,–,–,–,–,–
CC(C)c1cc(C(C)C)c(CC(=O)NS(=O)(=O)Oc2c(C(C)C)cccc2C(C)C)c(C(C)C)c1 [Avasimibe],–,–,91 percent control,92 percent control,–,–,–,–,–,–
O=[N+]([O-])c1cn(C(c2ccccc2)(c2ccccc2)c2ccccc2)cn1 [CDD3505],129 percent control,145 percent control,88 percent control,89 percent control,–,–,–,–,–,–
O=C(O)[C@H](O)Cc1ccc(O)c(O)c1 [Danshensu],113 percent control,–,97 percent control,–,–,–,–,–,–,–
COc1cc2c(cc1OC)[C@@H](Cc1ccc(Oc3cc(C[C@@H]4c5cc(OC)c(OC)cc5CCN4C)ccc3O)cc1)N(C)CC2 [Dauricine],108 percent control,117 percent control,113 percent control,112 percent control,–,–,–,–,–,–
O=C(O)c1ccc(-n2nc(-c3ccccc3O)nc2-c2ccccc2O)cc1 [Deferasirox],93 percent control,–,87 percent control,–,–,–,–,–,–,–
C=CCSCC=C [Diallyl sulfide],103 percent control,96 percent control,72 percent control,84 percent control,–,–,–,–,–,–
O=c1c(O)c(-c2ccccc2)oc2cc(O)cc(O)c12 [Galangin],115 percent control,103 percent control,131 percent control,123 percent control,–,–,–,–,–,–
CC12CC3CC(C)(C1)CC(N)(C3)C2 [Memantine HCl],117 percent control,109 percent control,104 percent control,98 percent control,–,–,–,–,–,–
O=C1C[C@@H](c2ccc(O)cc2)Oc2cc(O)cc(O)c21 [Naringenin],84 percent control,–,71 percent control,–,175 % of control,0.56 ± 0.02 nmol/mg/min,240 % of control,1.09 ± 0.04 nmol/mg/min,–,–
C[C@@H]1O[C@@H](O[C@H]2[C@H](Oc3cc(O)c(C(=O)CCc4ccc(O)cc4)c(O)c3)O[C@H](CO)[C@@H](O)[C@@H]2O)[C@H](O)[C@H](O)[C@H]1O [Naringin Dihydrochalcone],111 percent control,87 percent control,92 percent control,96 percent control,92 % of control,0.33 ± 0.02 nmol/mg/min,102 % of control,0.54 ± 0.07 nmol/mg/min,106 % of control,97 % of control
Cl.O=C(O)/C=C/c1ccc(Cn2ccnc2)cc1 [Ozagrel HCl],121 percent control,95 percent control,92 percent control,85 percent control,–,–,–,–,–,–
O=C(O)/C=C/c1ccc(Cn2ccnc2)cc1 [Ozagrel],97 percent control,109 percent control,93 percent control,92 percent control,–,–,–,–,–,–
Cc1ccc(-c2c(-c3nn(C)c4ncnc(N5CC[C@H](N6CCCCC6)C5)c34)cnn2C)cc1 [PF-4981517],98 percent control,108 percent control,101 percent control,110 percent control,–,–,–,–,–,–
COc1c(OC)c2occc2c2oc(=O)ccc12 [Pimpinellin],133 percent control,–,171 percent control,–,–,–,–,–,–,–
CCc1ccc(CCOc2ccc(CC3SC(=O)NC3=O)cc2)nc1 (stereo not drawn) [Pioglitazone HCl],99 percent control,87 percent control,98 percent control,100 percent control,–,–,–,–,–,–
COc1cc2c(=O)c3c(O)c([C@@H]4O[C@H](CO[C@@H]5OC[C@](O)(CO)[C@H]5O)[C@@H](O)[C@H](O)[C@H]4O)c(O)cc3oc2cc1O [Polygalaxanthone III],102 percent control,108 percent control,92 percent control,94 percent control,–,–,–,–,–,–
CC[C@@H]([C@H](C)O)n1ncn(-c2ccc(N3CCN(c4ccc(OC[C@@H]5CO[C@@](Cn6cncn6)(c6ccc(F)cc6F)C5)cc4)CC3)cc2)c1=O [Posaconazole],93 percent control,92 percent control,101 percent control,74 percent control,–,–,–,–,–,–
O=C([O-])C(O)Cc1ccc(O)c(O)c1.[Na+] (stereo not drawn) [Sodium Danshensu],116 percent control,118 percent control,98 percent control,107 percent control,–,–,–,–,–,–
